Measurements from US20030077289A1, “Use of cell-penetrating peptides to generate antitumor immunity” (priority 2001, published 2003).
Residues, ends and D or L forms follow the SMILES beside them.

Assays:
[1] = test system: B16 tumor; settings: Schreurs et al., 2000; 9-mer versus 8-mer; cited from earlier work
[2] = test system: mature DCs; test: Entry of fluorescein-labeled peptides into mature DCs (fluorescence microscopy); assay type: cell-based, C57BL/6 mouse
Method: 1A) Peptide sequences for cell-penetrating peptide (CPP1), TRP-2 and control peptides. B) Fluorescence and phase-contrast microscopy of DC incubated with various peptide-FITC (40×magnification). DCs incubated with PBS served as a control. 1C) DCs incubated with CPP1-TRP2-FITC and viewed by phase-contrast or fluorescence microscopy at 60×magnification. Representative examples of DC/CPP1-TRP2-FITC are shown. The penetrating fluorescent peptide was localized in both the cytoplasm as well as the cell nucleus. 1D) T cell response to DCs loaded with each peptide (solid circle for CPP1-TRP2, open circle for TRP2, and open triangle for CPP1-βgal) at different time points after peptide pulsing. GM-CSF release from T cells was determined by ELISA.
Dendritic Cell Preparation and Analysis. Mouse immature and mature DCs were derived from C57BL/6 bone marrow as previously described (Labeur et al., 1999; Specht et al., 1997). Phenotype and mixed leukocyte reaction activity of DCs were analyzed according to the protocol described (Specht et al., 1997). Briefly, immature DCs were generated in the presence of murine GM-CSF without transfer steps. The loosely adherent immature DCs were harvested on day 5 and used for experiments. Mature DCs were generated in the presence of recombinant GM-CSF and 1000 U/ml of IL-4 (Peprotech, Rocky Hill, N.J.). […]

[3] = test system: CD4+ T cells; test: Peptide-specific CD4+ T cell activity; assay type: cell-based

Row | Compound | CTL activity in vitro after multiple immunization [1] | intracellular localization of peptide in DCs ([2]; fluorescein-labeled peptide, mature DC) | internalization of peptide into mature DCs ([2]; peptide labeled at N-terminus with fluorescein, incubated with mature DC) | peptide-specific CD4+ T cell activity [3]
1 | CC(C)C[C@H](NC(=O)[C@H](Cc1c[nH]c2ccccc12)NC(=O)[C@@H](NC(=O)[C@H](Cc1ccccc1)NC(=O)[C@H](Cc1ccccc1)NC(=O)[C@H](CC(=O)O)NC(=O)[C@H](Cc1ccc(O)cc1)NC(=O)[C@@H](N)C(C)C)C(C)C)C(=O)O [TRP2 (VYDFFVWL 8-mer), VYDFFVWL] (H-VYDFFVWL-OH) | comparable |  |  | 
2 | AAVLLPVLLAAPSVYDFFVWL [CPP1-TRP2, TRP2 peptide covalently linked to cell-penetrating peptide CPP1 (21-mer)] |  | translocated and accumulated in the cytoplasm as well as the cell nucleus | efficiently internalized | not detected
3 | SVYDFFVWL [TRP2, reference compound] |  |  |  | not detected
